Laboratory results reported in patent US7939531B2, “Pyrrolopyrazine kinase inhibitors” (Roche Palo Alto, priority 2008, dated 2011).
Where a name gives a salt, the structure may show the parent alone.

Experiments:
[1] = molecular target: JAK3: Recombinant human kinase domain (Homo sapiens, UniProt P52333); assay: Determination of IC50 of Janus Kinase (JAK) Inhibition (radioactive end-point 33P-ATP kinase assay)
Chain of JAK3: Recombinant human kinase domain (P52333 822-1111 limits assumed): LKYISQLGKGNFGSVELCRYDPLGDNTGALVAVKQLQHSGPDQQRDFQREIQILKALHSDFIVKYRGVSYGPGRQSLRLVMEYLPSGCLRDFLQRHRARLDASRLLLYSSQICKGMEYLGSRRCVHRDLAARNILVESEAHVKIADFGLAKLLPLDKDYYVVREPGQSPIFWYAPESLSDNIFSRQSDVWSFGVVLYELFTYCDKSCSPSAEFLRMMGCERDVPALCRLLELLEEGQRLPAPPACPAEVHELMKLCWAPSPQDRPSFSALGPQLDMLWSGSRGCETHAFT
Description: Assay conditions used are described below: • Assay Buffer: JAK Kinase Buffer: 50 mM Hepes [pH 7.2], 10 mM MgCl2, 1 mM DTT, 1 mg/ml BSA. The assay is carried out in this buffer. • Assay Format The kinase activity of all three JAK kinases is measured using a radioactive, end-point assay and with trace amounts of ^33P-ATP. The assays are carried out in 96-well polypropylene plates.
All concentrations are final in the reaction mixture and all incubations are carried at room temperature. […] Final concentration of DMSO in the reaction is 10%. • 2) Compounds are preincubated with enzyme (0.5 nM JAK3 (commercially available), 0.2 nM JAK3 (prepared), 1 nM JAK2, 5 nM JAK1) for 10 minutes. • 3) Reactions are initiated by the addition of a cocktail of the two substrates (ATP and peptide premixed in the JAK Kinase Buffer). […] JAK1 assay is carried out at an ATP concentration of 10 uM and a peptide concentration of 50 uM. • 4) The duration of the assay for JAK2 and JAK3 is 20 minutes. JAK1 assay is carried out for 40 minutes. With all three enzymes, reactions are terminated by the addition of 0.5M EDTA to a final concentration of 100 mM. • 5) 25 ul of terminated reactions are transferred to 150 ul of a 7.5% (v/v) slurry of streptavidin-coated sepharose beads in MgCl2- and CaCl2-free 1× Phosphate Buffered Saline containing 50 mM of EDTA in 96-well, 1.2 um MultiScreen-BV filter plates. • 6) After a 30-minute incubation, the beads are washed under vacuum with the following buffers: • a. 3 to 4 washes with 200 ul of 2M NaCl. • b. 3 to 4 washes with 200 ul of 2M NaCl plus 1% (v/v) phosphoric acid. • c. 1 wash with water. • 7) Washed plates are dried in a 60° C. oven for between 1 to 2 hours. • 8) 70 ul of Microscint 20 scintillation fluid is added to each well of filter plates and after at least 30 minutes of incubation, radioactive counts are measured in a Perkinelmer microplate scintillation counter.

melting point [°C] | IC50 [1] [nM] | SMILES
273 to 275 | – | CCC(CC)NC(=O)c1cc(-c2cnc3[nH]cc(C(=O)C4(C)CCCCC4)c3n2)cs1 (as salt: hydrochloride) [Compound I-43, 4-[7-(1-Methyl-cyclohexanecarbonyl)-5H-pyrrolo[2,3-b]pyrazin-2-yl]-thiophene-2-carboxylic acid (1-ethyl-propyl)-amide]
> 300 | – | CC(C)(C)C(=O)c1c[nH]c2ncc(-c3ccc(C(=O)NC4CCCC4)s3)nc12 [Compound I-31, 5-[7-(2,2-Dimethyl-propionyl)-5H-pyrrolo[2,3-b]pyrazin-2-yl]-thiophene-2-carboxylic acid cyclopentylamide]
> 300 | – | CC(C)(C)C(=O)c1c[nH]c2ncc(-c3ccc(C(=O)NC4CCOCC4)s3)nc12 [Compound I-32, 5-[7-(2,2-Dimethyl-propionyl)-5H-pyrrolo[2,3-b]pyrazin-2-yl]-thiophene-2-carboxylic acid (tetrahydro-pyran-4-yl)-amide]
207 to 209 | – | CC(C)(C)C(=O)c1c[nH]c2ncc(C3=C(c4ccccc4)CCC3)nc12 [Compound I-38, 2,2-Dimethyl-1-[2-(2-phenyl-cyclopent-1-enyl)-5H-pyrrolo[2,3-b]pyrazin-7-yl]-propan-1-one]
278 to 280 | – | CCOC(=O)c1cc2cc(C3=C(c4cnc5[nH]cc(C(=O)C(C)(C)C)c5n4)CCC3)ccc2[nH]1 [Compound I-39, 5-{2-[7-(2,2-Dimethyl-propionyl)-5H-pyrrolo[2,3-b]pyrazin-2-yl]-cyclopent-1-enyl}-1H-indole-2-carboxylic acid ethyl ester]
– | 44.7 | CN(CC#N)C(=O)c1cc(-c2cnc3[nH]cc(C(=O)C4(C)CCCCC4)c3n2)cs1 [Compound I-40, 4-[7-(1-Methyl-cyclohexanecarbonyl)-5H-pyrrolo[2,3-b]pyrazin-2-yl]-thiophene-2-carboxylic acid cyanomethyl-methyl-amide]
– | 18 | CN(CCO)C(=O)c1ccc(-c2cnc3[nH]cc(C(=O)C4(C)CCCCC4)c3n2)s1 [Compound I-73, 5-[7-(1-Methyl-cyclohexanecarbonyl)-5H-pyrrolo[2,3-b]pyrazin-2-yl]-thiophene-2-carboxylic acid (2-hydroxy-ethyl)-methyl-amide]
– | 28.3 | CC1(C(=O)c2c[nH]c3ncc(-c4ccc(C(=O)N5CCC(O)C5)s4)nc23)CCCCC1 (stereo not drawn) [Compound I-74, {2-[5-(3-Hydroxy-pyrrolidine-1-carbonyl)-thiophen-2-yl]-5H-pyrrolo[2,3-b]pyrazin-7-yl}-(1-methyl-cyclohexyl)-methanone]
205 to 207 | – | CC(C)(C)C(=O)c1c[nH]c2ncc(-n3ccc4ccccc43)nc12 [Compound I-97, 1-(2-Indol-1-yl-5H-pyrrolo[2,3-b]pyrazin-7-yl)-2,2-dimethyl-propan-1-one]
235 to 237 | – | CC(C)(C)C(=O)c1c[nH]c2ncc(-c3cn(Cc4ccccc4)nn3)nc12 [Compound I-105, 1-[2-(1-Benzyl-1H-[1,2,3]triazol-4-yl)-5H-pyrrolo[2,3-b]pyrazin-7-yl]-2,2-dimethyl-propan-1-one]
224 to 225 | – | CC1(C(=O)c2c[nH]c3ncc(-c4cccs4)nc23)CCCCC1 [Compound I-106, (1-Methyl-cyclohexyl)-(2-thiophen-2-yl-5H-pyrrolo[2,3-b]pyrazin-7-yl)-methanone]
215 to 217 | – | CC(C)(C)C(=O)c1c[nH]c2ncc(-n3ccnc3)nc12 [Compound I-107, 1-(2-Imidazol-1-yl-5H-pyrrolo[2,3-b]pyrazin-7-yl)-2,2-dimethyl-propan-1-one]
247 to 249 | – | Cc1nccn1-c1cnc2[nH]cc(C(=O)C(C)(C)C)c2n1 [Compound I-108, 2,2-Dimethyl-1-[2-(2-methyl-imidazol-1-yl)-5H-pyrrolo[2,3-b]pyrazin-7-yl]-propan-1-one]
235 to 236 | – | CC1=NCCN1c1cnc2[nH]cc(C(=O)C(C)(C)C)c2n1 [Compound I-109, 2,2-Dimethyl-1-[2-(2-methyl-4,5-dihydro-imidazol-1-yl)-5H-pyrrolo[2,3-b]pyrazin-7-yl]-propan-1-one]
276 to 278 | – | CCc1nccn1-c1cnc2[nH]cc(C(=O)C(C)(C)C)c2n1 [Compound I-110, 1-[2-(2-Ethyl-imidazol-1-yl)-5H-pyrrolo[2,3-b]pyrazin-7-yl]-2,2-dimethyl-propan-1-one]
281 to 282 | – | CC(C)(C)C(=O)c1c[nH]c2ncc(-c3cncs3)nc12 [Compound I-121, 2,2-Dimethyl-1-(2-thiazol-5-yl-5H-pyrrolo[2,3-b]pyrazin-7-yl)-propan-1-one]

More lines, now with the values behind:

SMILES | melting point [°C] | IC50 [1] [nM]
CC(C)(C)C(=O)c1c[nH]c2ncc(-c3cn(S(=O)(=O)c4ccccc4)c4ccccc34)nc12 [Compound I-1, 1-[2-(1-Benzenesulfonyl-1H-indol-3-yl)-5H-pyrrolo[2,3-b]pyrazin-7-yl]-2,2-dimethyl-propan-1-one] | 267 to 268 | –
CC(=O)N1CCN(c2cc(-c3cnc4[nH]cc(C(=O)C(C)(C)C)c4n3)ccn2)CC1 [Compound I-5, 1-{2-[2-(4-Acetyl-piperazin-1-yl)-pyridin-4-yl]-5H-pyrrolo[2,3-b]pyrazin-7-yl}-2,2-dimethyl-propan-1-one] | 257 to 260 | –
COc1cncc(-c2cnc3[nH]cc(C(=O)C(C)(C)C)c3n2)c1 [Compound I-6, 1-[2-(5-Methoxy-pyridin-3-yl)-5H-pyrrolo[2,3-b]pyrazin-7-yl]-2,2-dimethyl-propan-1-one] | 215 to 223.6 | –
CC(C)NC(=O)c1c[nH]c2ncc(N3CCCC(N(C)C(=O)OC(C)(C)C)C3)nc12 (stereo not drawn) [Compound I-7, [1-(7-Isopropylcarbamoyl-5H-pyrrolo[2,3-b]pyrazin-2-yl)-piperidin-3-yl]-methyl-carbamic acid tert-butyl ester] | 251 to 252 | –
CNC1CCCN(c2cnc3[nH]cc(C(=O)NC(C)C)c3n2)C1 (stereo not drawn) [Compound I-8, 2-(3-Methylamino-piperidin-1-yl)-5H-pyrrolo[2,3-b]pyrazine-7-carboxylic acid isopropylamide; compound with trifluoro-acetic acid] | 54 to 64 | –
CC(C)(C)C(=O)c1c[nH]c2ncc(-c3ccnc(N4CCCC4)c3)nc12 [Compound I-11, 2,2-Dimethyl-1-[2-(2-pyrrolidin-1-yl-pyridin-4-yl)-5H-pyrrolo[2,3-b]pyrazin-7-yl]-propan-1-one] | 275.1 to 276.4 | –
CC(C)(C)C(=O)c1c[nH]c2ncc(-c3cn(C4CCCC4)nn3)nc12 [Compound I-12, 1-[2-(1-Cyclopentyl-1H-[1,2,3]triazol-4-yl)-5H-pyrrolo[2,3-b]pyrazin-7-yl]-2,2-dimethyl-propan-1-one] | 193.3 to 199.3 | –
CC(C)(C)C(=O)c1c[nH]c2ncc(-c3ccnc(N4CCCCC4)c3)nc12 [Compound I-13, 2,2-Dimethyl-1-[2-(3,4,5,6-tetrahydro-2H-[1,2′]bipyridinyl-4′-yl)-5H-pyrrolo[2,3-b]pyrazin-7-yl]-propan-1-one] | 250 to 251 | –
CN(C)C1CCN(c2cc(-c3cnc4[nH]cc(C(=O)C(C)(C)C)c4n3)ccn2)C1 (stereo not drawn) [Compound I-14, 1-{2-[2-(3-Dimethylamino-pyrrolidin-1-yl)-pyridin-4-yl]-5H-pyrrolo[2,3-b]pyrazin-7-yl}-2,2-dimethyl-propan-1-one] | 226 to 228 | –
CC(C)(C)C(=O)c1c[nH]c2ncc(-c3ccnc(N4CCSCC4)c3)nc12 [Compound I-15, 2,2-Dimethyl-1-[2-(2-thiomorpholin-4-yl-pyridin-4-yl)-5H-pyrrolo[2,3-b]pyrazin-7-yl]-propan-1-one] | 287 to 290 | –
CC1CCCN1c1cc(-c2cnc3[nH]cc(C(=O)C(C)(C)C)c3n2)ccn1 (stereo not drawn) [Compound I-16, 2,2-Dimethyl-1-{2-[2-(2-methyl-pyrrolidin-1-yl)-pyridin-4-yl]-5H-pyrrolo[2,3-b]pyrazin-7-yl}-propan-1-one] | 220 to 221 | –
